Patent US20220079915A1, “IMMUNOSUPPRESSIVE PHARMACEUTICAL COMPOSITION AND APPLICATION THEREOF” (Shanghai Archeus Biotech Co., Ltd., priority 2018, published 2022)

Legend:
IL-17A = IL-17A secretion of mouse spleen Naïve CD4+ T cells induced to differentiate to Th17 cells by cytokines, ELISA; type: cell-based
Description: 1) Pre-coated the 96-well plate with 2 μg/mL anti-mouse CD3e and incubated overnight at 4 degrees Celsius: 2) Separated fresh spleens from adult C57BL/6 female mice (8-12 weeks old), ground and filtered through a […] nylon cell strainer to obtain a single cell suspension in pre-cooled DPBS; 3) Washed the spleen cells again with DPBS, and resuspended in RoboSep™ buffer at a density of 1×10^8/mL; 4) Separated primary CD4+ T cells with mouse primary CD4+ T cell isolation kit as required by the kit; 5) Resuspended the isolated CD4+ T cells in complete medium (RPMI 1640 medium+10% inactivated FBS+1% double antibiotics) at a density of 1×10^6/mL; 6) Washed the 96-well plate pre-coated with anti-mouse CD3e twice with DPBS, added 50 μL of cytokine cocktail, the composition and final concentration of which are shown in Table 6 below, and then added 50 μL of compound solution (the final concentration of DMSO was 0.1%). Added 100 μL of cell suspension to each well to allow the final cell number per well to be 1×10^5/100 μL; [table] 7) Cultured the cells for 7 days under the above conditions. The culture conditions were 37 degrees Celsius, 5% CO2 concentration; 8) After 7 days, added 1× stimulation cocktail (eBioscience 500X) to the culture medium for 4 hours, and then collected cell culture supernatant for detection with IL-17A enzyme-linked immunoassay kit; 9) Completed the detection of supernatant IL-17A concentration with mouse IL-17 DuoSet ELISA kit; 10) Read the OD450 nm absorbance value with a microplate reader, and generated the standard curve by using the 4-parameter logistic fitting (4-PL) method. 1) Diluted the capture antibody (provided in the kit) to a working concentration in PBS without carrier protein, that is, a 96-well plate can be coated with 100 microliters per well. Sealed and incubated the plate overnight at room temperature; 2) Aspirated the coating buffer of the well plate, and eluted with 400 microliters of eluent (provided in the kit) for three times, aspirating as much liquid as possible each time; 3) Added 300 microliters of diluent (provided in the kit) to each well, and equilibrated for 1 hour at room temperature; 4) Eluted the well plate as in the above step 2) to be ready for the addition of sample; ) Added 100 microliters of sample or standard to each well containing the added diluent, and sealed and incubated the well plate for 2 hours at room temperature; 6) Eluted the well plate as in the above step 2); 7) Added 100 microliters of detector antibody (provided in the kit) to each well, and sealed and incubated the well plate for 2 hours at room temperature. 8) Eluted the well plate as in the above step 2); 9) Added 100 microliters of Streptavidin-HRP working solution (provided in the kit) to each well, and sealed and incubated the well plate in dark for 20 minutes at room temperature. 10) Eluted the well plate as in the above step 2); 11) Added 100 microliters of reaction substrate solution (provided in the kit) to each well, and incubated at room temperature for 20 minutes, protected from light: 12) Added 50 microliters of stop solution (provided in the kit) to each well, and tapped the well plate to ensure that the liquid is evenly mixed; 13) Detected the optical density value of each well at […]. The values could be corrected by deducting the values at 540 nm or 570 nm.

TNF-α = test: LPS-induced TNF-α secretion in THP-1 cells, ELISA of culture supernatant; type: cell-based, human; settings: for TNF-α treatment value, B: relative to control
Description: 1) Recoveried and expanded THP-1 cells in a T75 culture flask. The growth medium was 10 milliliters of 10% fetal bovine serun/RPMI1640 (already containing 2 mM glutamine)/1% double antibiotics in each flask. Observed the cells under an invert microscope, and, when the cells were in the logarithmic growth phase, started the following drug treatment experiments; 2) Cultured 2*10e5/mL THP-1 cells in a 96-well culture plate with 100 microliters of growth medium (10% fetal bovine serum/RPMI640/1% double antibiotics) per well, and added 100 ng/ml PMA to incubate for 24 hour; 3) Eluted the non-adherent cells once with 300 microliters of fresh growth medium of 10% fetal bovine serum/RPMI1640/1% double antibiotics; 4) Added 200 microliters of growth medium of 10% fetal bovine serum/RPMI1640/1% double antibiotics, with/without test compound, to pre-incubate the cells at 37° C. for 2 hours; 5) Then added 100 ng/mL lipopolysaccharide (LPS) and incubated at 37° C. for 4 hours: 6) Collected 50 microliters of cell culture supernatant for the detection of the levels of related cytokines by enzyme-linked immunoassay, or stored it in a refrigerator at minus 80 degrees Celsius for future detection; 1) Prepared 1× elution buffer for enzyme-linked immunoassay. Prepared it with ultrapure water: 10× elution buffer mother solution=9:1 in volume ratio for use; 2) Prepared the antibody cocktail for enzyme-linked immunoassay. Prepared it with the antibody diluent (provided by Ab221825):antibody 1:antibody 2=18:1:1 in volume ratio for use. Antibody 1 was a TNF-α capture antibody and Antibody 2 was a TNF-α detector antibody. They were all supplied by kit Ab221825; 3) Prepared a series of concentration gradient samples of TNF-α standard with ultrapure water for the plotting of reaction standard curve and determining the linear range of detection signal; 4) Added 50 microliters of cell culture supernatant/standard and 50 microliters of the above antibody cocktail to a 96-well plate used for enzymatic reaction, sealed it with a film, placed it on a horizontal shaker, and incubated at 400 rpm for 1 hour at room temperature to allow the antibody-antigen complex was fully bound and coupled at the bottom of the well plate; 5) Discarded the supernatant, eluted with 350 microliters of 1× elution buffer/well for 3 times. In the last elution, put the well plate upside down on an absorbent paper and sucked and washed it thoroughly; 6) Added 100 microliters of TMB substrate solution (supplied by Ab221825) to each well, placed them on a horizontal shaker and incubated in the dark at room temperature for 5 minutes at a speed of 400 rpm; 7) Added 100 microliters of reaction stop solution (provided by Ab221825), placed on a horizontal shaker and mix at 400 rpm for 1 minute; 8) Detected the absorbance at 450 nm with a microplate reader.

[1] = cited from earlier work; for antihypertensive effect, equivalent to % of forskolin: source [2]
myocardial contraction = settings: cited from earlier work; for myocardial contraction activity EC50: sources [7], [8]; for myocardial contraction activity, equivalent to % of forskolin: source [2]
cAMP = settings: source [1]; cited from earlier work
[2] = test system: guinea pig myocardial contraction; settings: source [5]; cited from earlier work
[3] = of 6-[3-(dimethylamino)propionyl]forskolin; sources [3], [4]; cited from earlier work
[4] = test system: systolic blood pressure (SBP), diastolic blood pressure (DBP), heart rate (HR); settings: source [3]; cited from earlier work
[5] = cited from earlier work
psoriasis = settings: 4 patients with psoriasis; PCT/US84/00291; cited from earlier work
[6] = biological target: adenylate cyclase in rat cerebral cortex; settings: source [8]; read-out: activation of adenylate cyclase in rat cerebral cortex EC50; cited from earlier work

Q: For C[C@]12CCC(=O)C=C1CC[C@@H]1[C@@H]2[C@@H](O)C[C@@]2(C)[C@H]1CC[C@]2(O)C(=O)CO [hydrocortisone, reference compound], which “reduction of the IL-17A level, % of the basic level” value (IL-17A; 3 μM hydrocortisone alone, FIG. 12) is on record?
A: 38%

Q: And the “IL17-A treatment value, B” value (IL-17A; Table 8, relative to control, 3 μM hydrocortisone)?
A: 62%

Q: What about the “effect on TNF-α” value (TNF-α; 30 μM hydrocortisone alone, pre-incubated 2 hours before LPS, FIG. 6) of the same compound?
A: further stimulated the increase of inflammatory factor TNF-α

Q: And the “TNF-α treatment value, B” value (TNF-α; Table 4, 30 μM hydrocortisone)?
A: 200%

Q: What does the source list for CCCCC[C@H](O)/C=C/[C@H]1[C@H](O)CC(=O)[C@@H]1C/C=C\CCCC(=O)O [PGE2, prostaglandin E2, reference compound]?
A: IL-17A, % of the basic level (IL-17A; 3 μM PGE2 alone, FIG. 10): 17%; IL-17A treatment value, B (IL-17A; Table 7, relative to control, 3 μM PGE2): 17%; effect on secretion and expression of TNF-α (TNF-α; 10 μM PGE2 alone, FIG. 4): inhibited the secretion and expression of TNF-α to a certain extent; TNF-α treatment value, B (TNF-α; Table 3, 10 μM PGE2): 46%

Q: With C=C[C@@]1(C)CC(=O)C2(O)[C@@]3(C)C(O)CCC(C)(C)C3[C@H](OC(=O)CCCN)C(OC(C)=O)[C@@]2(C)O1 (stereo partly shown) [6-(4-aminobutyryl)forskolin] as the compound, how does the antihypertensive effect ([1]; source [1]) read?
A: 0.7

Q: And the myocardial contraction activity (myocardial contraction; source [1])?
A: 0.9 dp/dt

Q: What about the cAMP activation (cAMP) of the same compound?
A: 214.9%

Q: For C=CC1(C)CC(=O)C2(O)C(C)(O1)C(O)C(OC(=O)CN1CCCCC1)C1C(C)(C)CCC(O)C12C (stereo not shown) [6-[(piperidino)acetyl]-7-desacetyl forskolin], which “guinea pig myocardial contraction activity EC50” value [2] is on record?
A: guinea pig myocardial contraction activity EC50: 1.8 μg/mL

Q: Which metabolite status [3] does the source give for C=C[C@@]1(C)CC(=O)C2(O)[C@@]3(C)[C@@H](O)CCC(C)(C)[C@@H]3[C@H](OC(=O)CCN)[C@H](OC(C)=O)[C@@]2(C)C1 (stereo partly shown) [6-[3-aminopropionyl]forskolin] here?
A: in vivo active metabolite of 6-[3- (dimethylamino)- propionyl]forskolin

Q: What does the source list for C=C[C@@]1(C)CC(=O)C2(O)[C@@]3(C)[C@@H](O)CCC(C)(C)[C@@H]3[C@H](OC(=O)CCNC)[C@H](OC(C)=O)[C@@]2(C)C1 (stereo partly shown) [6-[3-(methylamino)propionyl]forskolin]?
A: beagle dog's systolic blood pressure (SBP), diastolic blood pressure (DBP), heart rate (HR) and other effects [4]: equivalent to 6-[3- (dimethylamino)- propionyl]forskolin; metabolite status [3]: in vivo active metabolite

Q: For C=C[C@@]1(C)CC(=O)[C@]2(O)C3(C)C(C(O)C(OC(=O)COC=O)[C@@]2(C)O1)C(C)(C)CC[C@@H]3O (stereo partly shown) [7-(2-formyloxy)forskolin], which “myocardial contraction activity EC50” value (myocardial contraction) is on record?
A: myocardial contraction activity EC50 = 0.002 μg/mL

Q: Which “antihypertensive effect, equivalent to % of forskolin” value [1] does the source give for C=C[C@@]1(C)CC(=O)C2(O)[C@@]3(C)C(O)CCC(C)(C)C3[C@H](OC(=O)CCCN(C)C)C(OC(C)=O)[C@@]2(C)O1 (stereo partly shown) [6-[4-(dimethylamino)butyryl]forskolin] here?
A: 90 % of forskolin

Q: What about the “myocardial contraction activity, equivalent to % of forskolin” value (myocardial contraction) of the same compound?
A: 100 % of forskolin

Q: For C=C[C@@]1(C)CC(=O)[C@]2(O)[C@@]3(C)[C@@H](O)CCC(C)(C)[C@@H]3[C@H](O)[C@H](OC(C)=O)[C@@]2(C)O1 [forskolin], which “drug activity in reducing TNF-α” value (TNF-α; FIG. 2, compared with 6-[3-(dimethylamino)propionyl]forskolin hydrochloride) is on record?
A: slightly lower than the aforementioned compound

Q: What about the water solubility [5] of the same compound?
A: poor

Q: What about the “effect on pathological symptoms of psoriasis” value (psoriasis) of the same compound?
A: relieved the pathological symptoms

Q: What about the “myocardial contraction activity EC50” value (myocardial contraction) of the same compound?
A: 0.02 µg/mL

Q: What about the EC50 [6] of the same compound?
A: 8 µM

Q: Which results are given for C=C[C@@]1(C)CC(=O)C2(O)[C@@]3(C)C(O)CCC(C)(C)C3[C@H](OC(=O)CCN(C)C)C(OC(C)=O)[C@@]2(C)O1 (stereo partly shown) [6-[3-(dimethylamino)propionyl]forskolin]?
A: antihypertensive effect, equivalent to % of forskolin [1]: 80 % of forskolin; myocardial contraction activity, equivalent to % of forskolin (myocardial contraction): 120 % of forskolin
